What was measured:
Format in all cases: in vivo, C57BL/6 mice
BM5d proviral DNA = experiment: PCR analysis of BM5d proviral DNA in spleen, lymph node and bone marrow; settings: for % of inhibition of BM5d proviral DNA, Bonemarrow / % of inhibition of BM5d proviral DNA, Lymphnode / % of inhibition of BM5d proviral DNA, Spleen: after 7 weeks of infection
Source text: The following oligonucleotide primers were used for the amplification of a 141-bp gag gene of defective virus genome (BM5d); 5' primer, 5'-AACCTTCCTCCTCTGCCA-3' (sense) corresponding to nucleotides 1456-1473 and 3' primer, 5'-ACCACCTCTCGGGCTTTC-3' (antisense) corresponding to nucleotides 1579-1596 of the BM5d genome (Chat topadhyay SK, Sengupta D.N., FredricksonT.N., Morse H.C. III, Hartley J.W., "Characteristics and contributions of defective, ecotropic and mink cell focus-inducing viruses in a retrovirus induced immunodeficiency syndrome of mice.", J..Virol. 1991; 65: 4232-41.). A second pair or oligonucleotide primers was used for amplification of 203-bp of the mouse glucose-6-phosphate dehydrogenase (G6PD) gene. This amplification served as an internal control (endogenous standard) for evaluation of the relative BM5d proviral DNA. The nucleotide primers for the amplification were as follows: 5' primer, 5'-[…]-3' (sense) and 3' primer, 5'-[…]-3' (antisense) (Kurdi-Haidar B., Mason P.J., Berrebi A., et al., "Origin and spread of the glucose-6-phosphate dehydrogenase variant (G6PD-Mediterranean) in the Middle East.", Am. J. Hum. Genet. 1990; 47:1013-19.).
Probe D30, which was derived from the 137-bp Smal-Xhol p12 gag fragment of the defective virus genome (DU5H), was kindly provided by P. Jolicoeur (Montreal, Canada) (Aziz D.C., Hanna Z., Jolicoeur P., "Severe immunodeficiency disease induced by a defective murine leukemia virus.", Nature 1989; 338: 505-08).
Total cellular DNA was isolated from the spleens, lymph nodes and bone marrow of uninfected, infected and infected/treated mice by the sodium iodide isopropanol method.
PCR amplifications were performed in a 25 µl final volume using the Perkin Elmer GeneAMP kit (1 mM MgCl2, 2.5 U AmpliTag) with 0.3 µg total cellular DNA and 20 pmol of each primer.
PCR reaction were carried out for 37 cycles at 95°C for 30 sec, 58°C for 30 sec and 72°C for 30 sec with a final extension at 72°C for 10 min.
Products were analyzed by electrophoresis on agarose gel, blotted and hybridized with either the ^32P-labeled D30 or G6PD probe.
The intensity of radiolabeled bands was analyzed and quantified in a GS-250 Molecular Imager™ (Bio-Rad, Hercules, CA, USA). For BM5d proviral DNA detection the relative integration was determined by dividing the intensity of the BM5d bands by the intensity of G6PD bands (Fraternale A., Casabianca A., Rossi L., et al., "Inhibition of murine AIDS by combination of AZT and dideoxycytidine 5'-triphosphate.", J. Acquir. Imm. Def Syndr. and Hum. Retrovir. 1996; 12:164-73). The percentages of inhibition were referred to the infected mice.

LP-BM5 = experiment: Serum IgG by ELISA (hypergammaglobulinemia) in LP-BM5 infected mice; settings: about 4 months from infection
Experimental: Serum IgG levels were determined using an ELISA technique. Briefly, polyvinylchloride microtiter plates (Immulon I; Dynatech Laboratories, Chantilly, VA) were coated with goat anti mouse IgG (Sigma) diluted in 0.135 M sodium chloride for ≥ 24 hr. After four washes with 0.1% tween PBS (TPBS), the plates were blocked with 5% bovin serum albumin (BSA) in PBS for 1 h at 37°C and washed again with TPBS. Serial dilutions of mouse serum were added and after incubation for 1 h at 37°C, the plates were washed four times with TPBS, and 100 µl of horseradish (HRP)-conjugated goat anti-mouse IgG (Bio-Rad, Richmond, CA) was added. After 1 h incubation at 37°C, serum levels were determined using a color development solution containing 2.2 mM O-Phenylenediamine. Absorbance was measured at 492 nm on Model 2550 EIA READER (BIO-RAD). Absolute serum IgG concentrations were obtained using known concentrations of standard mouse IgG.
First, the efficacy of 2-fluoro-ara-AMP (F-araAMP, Fludara) in inhibiting murine AIDS (MAIDS), a disease characterized by a lymphoproliferative disorder (lymphadenopathy and splenomegaly), associated with severe immunodeficiency and hypergammaglobulinemia, was evaluated. The disease develops in some strains of mice (C57BL/6) that are infected with a murine leukemia virus mixture termed LP-BM5. In the first preliminary experiments (after about 4 months from infection) LP-BMS infected animals were treated with three different concentrations of F-ara-AMP: 0.065 mg/mouse, 0.325 mg/mouse, 0.650 mg/mouse. The animals of each group were treated intraperitoneally for 3 days a week and for 3 weeks. At the end of the treatment animals were killed and splenomegaly, lymphadenopathy and hypergammaglobulinemia were evaluated.

circulating B cells = experiment: Flow cytometry of circulating lymphocytes; settings: after Fludara suspension
Source text: Whole blood samples were stained with antimouse L3T4/CD4 fluorescein isothiocyanate (FITC) conjugated (Boehringer Mannheim Biochemica) for the detection of CD4^+ lymphocytes, antimouse Ly-2R phycoerythrin (PE) conjugated (Boehringer Mannheim Biochemica) for the detection of CD8a lymphocytes, antimouse Thy-1.2 FITC conjugated (Boehringer Mannheim Biochemica) for the detection of T cells, and antimouse Ly 5 (B220)-PE Monoclonal antibody (Cederlane, Ontario, Canada) for the detection of committed B cell precursors. Samples were analyzed by FACS (Becton Dickinson).

[1] = group a: 3.0 mg i.p. once a day for 5 consecutive days, 4 weeks
[2] = group b: 3.0 mg i.p. twice a day for 5 consecutive days, 4 weeks
[3] = group c: 10 mg in drinking water for 5 consecutive days, 4 weeks
[4] = group d: 15 mg in drinking water for 5 consecutive days, 4 weeks
[5] = treatment c: after 6 weeks of infection 3 mg F-ara-AMP i.p. twice a day, 5 consecutive days, 4 weeks, at 10 weeks after infection
[6] = treatment g: after 6 weeks of infection 3 mg F-ara-AMP i.p. twice a day 4 weeks, then interrupted, at 15 weeks after infection

Nc1nc(F)nc2c1ncn2[C@@H]1O[C@H](COP(=O)(O)O)[C@@H](O)[C@@H]1O [F-ara-AMP, Fludarabine phosphate]
% of inhibition of BM5d proviral DNA, Bonemarrow (BM5d proviral DNA; [1]): 0% | % of inhibition of BM5d proviral DNA, Lymphnode (BM5d proviral DNA; [1]): 19.76±11.10 % | % of inhibition of BM5d proviral DNA, Spleen (BM5d proviral DNA; [1]): 25.74±17.54% | % of inhibition of BM5d proviral DNA, Bonemarrow (BM5d proviral DNA; [2]): 22.94±7.40 % | % of inhibition of BM5d proviral DNA, Lymphnode (BM5d proviral DNA; [2]): 54.63±13.12 % | % of inhibition of BM5d proviral DNA, Spleen (BM5d proviral DNA; [2]): 39.85±16.70 % | % of inhibition of BM5d proviral DNA, Bonemarrow (BM5d proviral DNA; [3]): 28.05±8.84 % | % of inhibition of BM5d proviral DNA, Lymphnode (BM5d proviral DNA; [3]): 30.33±19.67 % | % of inhibition of BM5d proviral DNA, Spleen (BM5d proviral DNA; [3]): 15.16±11.46% | % of inhibition of BM5d proviral DNA, Bonemarrow (BM5d proviral DNA; [4]): 21.69±9.02 % | % of inhibition of BM5d proviral DNA, Lymphnode (BM5d proviral DNA; [4]): 12.16±5.48% | % of inhibition of BM5d proviral DNA, Spleen (BM5d proviral DNA; [4]): 27.40±8.47 % | bone marrow, BM5d proviral DNA copy number (E) (BM5d proviral DNA; [5]): 19,750±1,485 Proviral DNA molecules per 0.3 µg of total cellular DNA | bone marrow, inhibition of BM5d (% vs. Infected) (F) (BM5d proviral DNA; [5]): 30.32±5.24 % | lymph node, BM5d proviral DNA copy number (C) (BM5d proviral DNA; [5]): 49,500±7758 Proviral DNA molecules per 0.3 µg of total cellular DNA | lymph node, inhibition of BM5d (% vs. Infected) (D) (BM5d proviral DNA; [5]): 77.46±3.53 % | spleen, BM5d proviral DNA copy number (A) (BM5d proviral DNA; [5]): 37,900±15,717 Proviral DNA molecules per 0.3 µg of total cellular DNA | spleen, inhibition of BM5d (% vs. Infected) (B) (BM5d proviral DNA; [5]): 74.27 ± 10.67 % | bone marrow, BM5d proviral DNA copy number (E) (BM5d proviral DNA; [6]): 33,900±3,736 Proviral DNA molecules per 0.3 µg of total cellular DNA | lymph node, BM5d proviral DNA copy number (C) (BM5d proviral DNA; [6]): 180,000±8,544 Proviral DNA molecules per 0.3 µg of total cellular DNA | lymph node, inhibition of BM5d (% vs. Infected) (D) (BM5d proviral DNA; [6]): 34.00±3.13 % | spleen, BM5d proviral DNA copy number (A) (BM5d proviral DNA; [6]): 135,000±47,444 Proviral DNA molecules per 0.3 µg of total cellular DNA | spleen, inhibition of BM5d (% vs. Infected) (B) (BM5d proviral DNA; [6]): 31.47±24.08% | Hyperg. (% inh.) (LP-BM5; 0.065 mg/mouse i.p. 3 days a week for 3 weeks): 12±10% | Hyperg. (% inh.) (LP-BM5; 0.325 mg/mouse i.p. 3 days a week for 3 weeks): 16±7% | Hyperg. (% inh.) (LP-BM5; 0.650 mg/mouse i.p. 3 days a week for 3 weeks): 19±4% | number of circulating B cells after suspension of administration (circulating B cells): returns to normal values

From EP0987025A1, “Pharmaceitical composition or composition package containing a pyrimidine nucleoside analogue and a purine nucleoside analogue” (priority 1998, dated 2000)
